Laboratory results published in patent US20260166039A1 (SCHRÖDINGER, INC., priority 2022, published 2026).
Where two headings read alike, the source gives them in different places.

Experiments:
[1] = system: phosphorylation of Cdc2 Y15 (Wee1 substrate) in A427 cells; assay: Phosphorylated Cdc2 MSD Electrochemiluminescence Assay; format: cell-based; details: Homo sapiens
Procedure: Phosphorylated Cdc2 MSD Electrochemiluminescence Assay
The effect of Wee1 inhibitors on cellular phosphorylation of the Wee1 substrate Cdc2 was determined using the following protocol:
A total of 40,000 A427 cells in 100 uL culture medium (1640 medium+10% Fetal bovine serum+1% Penicillin-Streptomycin) were plated in 96-well cell culture plates. 3-fold serial dilutions of test compounds were prepared in completed PBS at 25× final concentration. After 20 hours, the plates were removed and 4 μL of each were added to the cells and incubated with shaking for 30 minutes at 37° C., 5% CO2. Each concentration was tested in duplicate. After a total 6 hours incubation, plates were removed and centrifuged for 5 minutes and 100 uL of supernatant from each well was removed. Cells were washed with 200 μL PBS and lysed with 50 μL MSD lysis buffer (Meso Scale Diagnostics) supplied with 1× complete ULTRA cocktail inhibitor (Roche).
To detect phosphorylation of Cdc2 Y15, 30 μL of capture antibody solution (CST catalog #9116S 1:200) was added into each well of the MSD plate (MSD catalog #L15XB-6), sealed and incubated at 4° C. with shaking (450 rpm) overnight. The antibody solution was removed, wells blocked with BSA solution and plates washed three times with PBST, followed by addition of 30 μl of cell lysate per well. After 2 hours of incubation, plates were washed three times with PBST. 30 μL of 1× detection antibody solution (CST catalog #4539S 1:200) was then added to each well and incubated for 1 hour. Plates were washed three times with PBST and 30 μL of 1× secondary antibody solution (MSD, catalog #:R32AB-1, 1:5000) was added to each well and incubated for 1 hour. Plates were washed three times with PBST and 150 μL of 1× Read Buffer T (MSD, catalog #R92TC-1) was added to each well of the MSD plate. The electrochemiluminescence signal was measured on a MESO SECTOR S600 plate reader. The percentage of remaining phosphorylated Cdc2 signal was calculated following the equation below.
[formula] • HC (high control): Cells treated with DMSO • Cpds: Cells treated with test compounds • LC (low control): Cells treated with positive control Wee1 inhibitor

[2] = biological target: T1, Wee1 kinase domain (Homo sapiens, UniProt P30291); assay: Wee1 Kinase Biochemical Assay (ADP-Glo); details: 15 uM ATP
T1 construct: Wee1 kinase domain was purchased from Carna (catalog #05-177); purchased Carna 05-177
Outline: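 The reaction mix held 1 nM Wee1 kinase domain, 15 uM ATP and 2 ng/mL Poly(Lys,Tyr 4:1) substrate and was left for 4 hours at 25 °C. ADP production was then measured with ADP-Glo, and percent inhibition was derived relative to DMSO and a saturating Wee1 inhibitor.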

[3] = A-427, class symbols, read-out: A427 pCDC2 MSD IC50
[4] = class symbols, 1 nM Wee1 enzyme, 4 hours at 25° C.

T1 sequence (P30291 299-569 limits assumed): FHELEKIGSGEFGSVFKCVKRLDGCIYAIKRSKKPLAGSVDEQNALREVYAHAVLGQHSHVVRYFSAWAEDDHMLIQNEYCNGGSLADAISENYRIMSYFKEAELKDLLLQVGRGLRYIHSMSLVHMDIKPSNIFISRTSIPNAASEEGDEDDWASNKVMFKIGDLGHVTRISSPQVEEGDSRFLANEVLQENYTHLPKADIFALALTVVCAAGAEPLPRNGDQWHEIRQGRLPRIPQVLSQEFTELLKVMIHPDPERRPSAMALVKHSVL

SMILES: CN1CC[C@H](Oc2ccc(Nc3ncc4c(n3)N(c3cccc(N=S(C)(C)=O)n3)[C@@H]3CC(C)(C)OC[C@]43C)cc2)C1 (single isomer, unassigned) [Example 157]
- IC50 ([1]; A-427, pCDC2 MSD): < 0.1 µM
- IC50 ([2]; Wee1 kinase domain, ADP-Glo): < 0.01 µM

SMILES: CNCc1cccc(N2c3nc(Nc4ccc(C5(C)COC5)cc4)ncc3[C@]3(C)COC(C)(C)C[C@H]23)n1 (single isomer, unassigned) [Example 82]
- IC50 ([1]; A-427, pCDC2 MSD): 0.1 to 1 µM
- IC50 ([2]; Wee1 kinase domain, ADP-Glo): < 0.01 µM

SMILES: C[C@@H]1CN(c2ccc(Nc3ncc4c(n3)N(c3cccc(N5C(=O)OC[C@@H]5C)n3)[C@@H]3CC(C)(C)OC[C@]43C)cc2)CCN1C (single isomer, unassigned) [Example 313]
- IC50 ([1]; A-427, pCDC2 MSD): 0.1 to 1 µM
- IC50 ([2]; Wee1 kinase domain, ADP-Glo): < 0.01 µM

SMILES: CN(C)Cc1cccc(N2c3nc(Nc4ccn(C5CCOCC5)c(=O)c4)ncc3[C@@]3(C)COC(C)(C)C[C@@H]23)n1 (single isomer, unassigned) [Example 387]
- IC50 ([1]; A-427, pCDC2 MSD): 1 to 10 µM
- IC50 ([2]; Wee1 kinase domain, ADP-Glo): < 0.01 µM

SMILES: CC1(C)C[C@H]2N(c3cccc(N=S(C)(C)=O)n3)c3nc(Nc4ccn([C@H]5CCOC5)c(=O)c4)ncc3[C@@]2(C)CO1 (single isomer, unassigned) [Example 376]
- IC50 ([1]; A-427, pCDC2 MSD): 0.1 to 1 µM
- IC50 ([2]; Wee1 kinase domain, ADP-Glo): < 0.01 µM

SMILES: CNCc1cccc(N2c3nc(Nc4ccc([C@@H]5CCC(=O)N5C)nc4)ncc3[C@@]3(C)COC(C)(C)C[C@@H]23)n1 (single isomer, unassigned) [Example 96]
- IC50 ([1]; A-427, pCDC2 MSD): 0.1 to 1 µM
- IC50 ([2]; Wee1 kinase domain, ADP-Glo): < 0.01 µM

SMILES: CN1CC[C@@](C)(c2ccc(Nc3ncc4c(n3)N(c3cccc(N=S(C)(C)=O)n3)[C@@H]3CC(C)(C)OC[C@]43C)cc2)C1 (single isomer, unassigned) [Example 169]
- IC50 ([1]; A-427, pCDC2 MSD): < 0.1 µM
- IC50 ([2]; Wee1 kinase domain, ADP-Glo): < 0.01 µM

SMILES: Cn1ccc(Nc2ncc3c(n2)N(c2cccc(N=S(C)(C)=O)n2)[C@@H]2CC(C)(C)OC[C@]32C)cc1=O (single isomer, unassigned) [Example 363]
- IC50 ([1]; A-427, pCDC2 MSD): 0.1 to 1 µM
- IC50 ([2]; Wee1 kinase domain, ADP-Glo): < 0.01 µM

SMILES: CN1CCC(c2ccc(Nc3ncc4c(n3)N(c3cccc(S(C)(=O)=O)n3)[C@@H]3CC(C)(C)OC[C@]43C)cc2)CC1 (single isomer, unassigned) [Example 757]
- IC50 [1, 3]: 0.1 to 1 µM
- IC50 [2, 4]: < 0.01 µM

SMILES: CN1C[C@@H]2CN(c3ccc(Nc4ncc5c(n4)N(c4cccc(N6CCCC6=O)n4)[C@@H]4CC(C)(C)OC[C@]54C)cc3)C[C@@H]2C1 [Example 694, 1-(6-((4bR,8aR)-4b,7,7-trimethyl-2-((4-((3aR,6aS)-5-methylhexahydropyrrolo[3,4-c]pyrrol-2(1H)-yl)phenyl)amino)-4b,7,8,8a-tetrahydropyrano[3′,4′:4,5]pyrrolo[2,3-d]pyrimidin-9(5H)-yl)pyridin-2-yl)pyrrolidin-2-one]
- IC50 [1, 3]: 0.1 to 1 µM
- IC50 [2, 4]: < 0.01 µM

SMILES: Cc1cc(Nc2ncc3c(n2)N(c2cccc(N4C(=O)OC[C@@H]4C)n2)[C@@H]2CC(C)(C)OC[C@]32C)ccc1O[C@@H]1CCN(C)C1 (single isomer, unassigned) [Example 347]
- IC50 ([1]; A-427, pCDC2 MSD): 0.1 to 1 µM
- IC50 ([2]; Wee1 kinase domain, ADP-Glo): < 0.01 µM

SMILES: C[C@H]1COC(=O)N1c1cccc(N2c3nc(Nc4ccc(N5CCCN(C)CC5)cc4)ncc3[C@@]3(C)COC(C)(C)C[C@@H]23)n1 (single isomer, unassigned) [Example 299]
- IC50 ([1]; A-427, pCDC2 MSD): 0.1 to 1 µM
- IC50 ([2]; Wee1 kinase domain, ADP-Glo): < 0.01 µM

SMILES: CN1C[C@@H]2C[C@H]1CN2c1ccc(Nc2ncc3c(n2)N(c2cccc(N4CCOC4=O)n2)[C@@H]2CC(C)(C)OC[C@]32C)cc1 (single isomer, unassigned) [Example 595]
- IC50 [1, 3]: 0.1 to 1 µM
- IC50 [2, 4]: < 0.01 µM

SMILES: CN=[S@](C)(=O)c1cccc(N2c3nc(Nc4ccc(N5CC6(CN(C)C6)C5)cc4)ncc3[C@@]3(C)COC(C)(C)C[C@@H]23)n1 [Example 770, (R)-methyl(methylimino)(6-((4bR,8aR)-4b,7,7-trimethyl-2-((4-(6-methyl-2,6-diazaspiro[3.3]heptan-2-yl)phenyl)amino)-4b,7,8,8a-tetrahydropyrano[3′,4′:4,5]pyrrolo[2,3-d]pyrimidin-9(5H)-yl)pyridin-2-yl)-16-sulfanone]
- IC50 [1, 3]: 0.1 to 1 µM
- IC50 [2, 4]: < 0.01 µM

SMILES: CN1CC(c2ccc(Nc3ncc4c(n3)N(c3cccc(N5CCCC5=O)n3)[C@@H]3CC(C)(C)OC[C@]43C)cc2)C1 [Example 696, 1-(6-((4bR,8aR)-4b,7,7-trimethyl-2-((4-(1-methylazetidin-3-yl)phenyl)amino)-4b,7,8,8a-tetrahydropyrano[3′,4′:4,5]pyrrolo[2,3-d]pyrimidin-9(5H)-yl)pyridin-2-yl)pyrrolidin-2-one]
- IC50 [1, 3]: 0.1 to 1 µM
- IC50 [2, 4]: < 0.01 µM

SMILES: C[C@H]1COC(=O)N1c1cccc(N2c3nc(Nc4ccc(O[C@H]5CCN(C)C5)cc4)ncc3[C@@]3(C)COC(C)(C)C[C@@H]23)n1 (single isomer, unassigned) [Example 333]
- IC50 ([1]; A-427, pCDC2 MSD): 0.1 to 1 µM
- IC50 ([2]; Wee1 kinase domain, ADP-Glo): < 0.01 µM

SMILES: CC1(C)C[C@H]2N(c3cccc(N=S(C)(C)=O)n3)c3nc(Nc4ccc(C5CNC5)cc4)ncc3[C@@]2(C)CO1 (single isomer, unassigned) [Example 163]
- IC50 ([1]; A-427, pCDC2 MSD): < 0.1 µM
- IC50 ([2]; Wee1 kinase domain, ADP-Glo): < 0.01 µM

SMILES: CC1(C)C[C@H]2N(c3cccc(C(C)(C)N)n3)c3nc(Nc4ccc(N5CCOCC5)cc4)ncc3[C@@]2(C)CO1 (single isomer, unassigned) [Example 567]
- IC50 [1, 3]: < 0.1 µM
- IC50 [2, 4]: < 0.01 µM

SMILES: CNCc1cccc(N2c3nc(Nc4ccc(C(C)(C)C(=O)O)cc4)ncc3[C@@]3(C)COC(C)(C)C[C@@H]23)n1 (single isomer, unassigned) [Example 458]
- IC50 [1, 3]: 1 to 10 µM
- IC50 [2, 4]: < 0.01 µM

SMILES: CNC(=O)c1ccc(Nc2ncc3c(n2)N(c2cccc(N=S(C)(C)=O)n2)[C@@H]2CC(C)(C)OC[C@]32C)cc1F [Example 119, 4-(((4bR,8aR)-9-(6-((dimethyl(oxo)-16-sulfaneylidene)amino)pyridin-2-yl)-4b,7,7-trimethyl-4b,5,7,8,8a,9-hexahydropyrano[3′,4′:4,5]pyrrolo[2,3-d]pyrimidin-2-yl)amino)-2-fluoro-N-methylbenzamide]
- IC50 ([1]; A-427, pCDC2 MSD): 0.1 to 1 µM
- IC50 ([2]; Wee1 kinase domain, ADP-Glo): < 0.01 µM

SMILES: CN1CCN(c2ccc(Nc3ncc4c(n3)N(c3ccn(C5CC5)n3)[C@@H]3CC(C)(C)OC[C@]43C)cc2)CC1 (single isomer, unassigned) [Example 739]
- IC50 [1, 3]: 1 to 10 µM
- IC50 [2, 4]: < 0.01 µM

SMILES: CN1CC2CC1CN2c1ccc(Nc2ncc3c(n2)N(c2cccc(C(F)F)n2)[C@@H]2CC(C)(C)OC[C@]32C)cc1 (stereo in doubt) [Example 814, (4bR,8aR)-9-(6-(difluoromethyl)pyridin-2-yl)-4b,7,7-trimethyl-N-(4-((1R,4R)-5-methyl-2,5-diazabicyclo[2.2.1]heptan-2-yl)phenyl)-4b,5,7,8,8a,9-hexahydropyrano[3′,4′:4,5]pyrrolo[2,3-d]pyrimidin-2-amine]
- IC50 ([1]; A-427, read-out: A427 pCDC2 MSD IC50): 0.1 to 1 µM
- IC50 ([2]; 1 nM Wee1 enzyme, 4 hours at 25° C): < 0.01 µM

SMILES: CC1(C)C[C@H]2N(c3cccc(N=S(C)(C)=O)n3)c3nc(Nc4cnccn4)ncc3[C@@]2(C)CO1 (single isomer, unassigned) [Example 366]
- IC50 ([1]; A-427, pCDC2 MSD): 1 to 10 µM
- IC50 ([2]; Wee1 kinase domain, ADP-Glo): < 0.01 µM

SMILES: CNCc1cccc(N2c3nc(Nc4ccc(-c5cnn(C)c5)c(C)c4)ncc3[C@@]3(C)COC(C)(C)C[C@@H]23)n1 (single isomer, unassigned) [Example 464]
- IC50 [1, 3]: 0.1 to 1 µM
- IC50 [2, 4]: < 0.01 µM

SMILES: CNCc1cccc(N2c3nc(Nc4ccc(N5C[C@H]6C[C@@H](C5)O6)cc4)ncc3[C@@]3(C)COC(C)(C)C[C@@H]23)n1 (single isomer, unassigned) [Example 481]
- IC50 [1, 3]: 0.1 to 1 µM
- IC50 [2, 4]: < 0.01 µM

SMILES: CC1(C)C[C@H]2N(c3cccc(N=S(C)(C)=O)n3)c3nc(Nc4ccc(C5CNC5)nc4)ncc3[C@@]2(C)CO1 (single isomer, unassigned) [Example 190]
- IC50 ([1]; A-427, pCDC2 MSD): 0.1 to 1 µM
- IC50 ([2]; Wee1 kinase domain, ADP-Glo): < 0.01 µM

SMILES: CN1C[C@H]2C[C@@H]1CN2c1ccc(Nc2ncc3c(n2)N(c2cccc(C4(O)COC4)n2)[C@@H]2CC(C)(C)OC[C@]32C)cc1 (single isomer, unassigned) [Example 517]
- IC50 [1, 3]: 0.1 to 1 µM
- IC50 [2, 4]: < 0.01 µM

SMILES: Cn1nc(Nc2ncc3c(n2)N(c2cccc(N=S(C)(C)=O)n2)[C@@H]2CC(C)(C)OC[C@]32C)ccc1=O (single isomer, unassigned) [Example 365]
- IC50 ([1]; A-427, pCDC2 MSD): 1 to 10 µM
- IC50 ([2]; Wee1 kinase domain, ADP-Glo): < 0.01 µM

SMILES: CN[C@@H]1CCN(c2ccc(Nc3ncc4c(n3)N(c3cccc(N5C(=O)OC[C@@H]5C)n3)[C@@H]3CC(C)(C)OC[C@]43C)cc2)C1 (single isomer, unassigned) [Example 319]
- IC50 ([1]; A-427, pCDC2 MSD): 0.1 to 1 µM
- IC50 ([2]; Wee1 kinase domain, ADP-Glo): < 0.01 µM
